Source: patent publication US5393869A, “Parathyroid hormone derivatives” (Takeda Chemical Industries, Ltd., priority 1990, dated 1995)

What follows are compounds tested against T1, PTH receptor (Mus musculus, UniProt P41593) (assay: cAMP production by PTH (1-34) analogues in MC3T3-EI osteoblast-like cells). Details: cAMP production, 0.01-100 nM analogue, room temperature 30 minutes, hPTH(1-34) = 1.00.
T1 construct: a mouse cranial bone-derived osteoblast-like cell strain, MC3T3-EI cells, cultivated on a 96-well multiplate; endogenous in cells; host or cells: MC3T3-E1 mouse osteoblast-like cells
T1 sequence (P41593 27-591): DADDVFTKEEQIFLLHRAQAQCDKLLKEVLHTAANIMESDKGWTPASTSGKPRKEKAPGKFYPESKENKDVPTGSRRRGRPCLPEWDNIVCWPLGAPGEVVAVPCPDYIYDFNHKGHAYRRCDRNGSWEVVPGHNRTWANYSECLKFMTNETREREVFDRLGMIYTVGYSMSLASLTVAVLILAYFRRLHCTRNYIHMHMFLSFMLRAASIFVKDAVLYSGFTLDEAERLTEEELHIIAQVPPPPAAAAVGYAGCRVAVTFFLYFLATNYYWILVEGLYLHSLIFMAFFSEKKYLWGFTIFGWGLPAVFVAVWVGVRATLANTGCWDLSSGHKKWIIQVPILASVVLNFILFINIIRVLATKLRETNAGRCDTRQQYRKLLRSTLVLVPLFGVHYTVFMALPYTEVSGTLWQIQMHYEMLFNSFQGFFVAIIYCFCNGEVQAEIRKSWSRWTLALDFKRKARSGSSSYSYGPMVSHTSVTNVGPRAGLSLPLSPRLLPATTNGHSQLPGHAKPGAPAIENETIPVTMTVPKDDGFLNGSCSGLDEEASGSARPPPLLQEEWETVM
Format: cell-based
Protocol: The biological activity of the peptide analogues was evaluated by a modified version of the method reported by Shigeno et al. in The Journal of Biological Chemistry 263, 18369-18377 (1988). A culture solution (Hank's solution, containing 20 mM N-2-hydroxyethylpiperazine-N'-2-ethanesulfonic acid (HEPES), 0.1% bovine serum albumin and 0.5 mM isobutylmethyl-xanthine) containing 0.01, 0.1, 1, 10 or 100 nM analogue was added in an amount of 100 μto a mouse cranial bone-derived osteoblast-like cell strain, MC3T3-EI cells, cultivated on a 96-well multiplate (Nunclon, Nunc), followed by reaction at room temperature for 30 minutes. After addition of 100 μof 0.2N hydrochloric acid, the mixture was immersed in boiling water for 2.5 minutes, and cyclic adenosine monophosphate (cAMP) produced by a PTH receptor was extracted from the cells. The total cAMP in the culture solution and the cells was assayed using a commercial radioimmunoassay kit (cyclic AMP [^125 I] kit "Du Pont-Daiichi", Daiichi Kagaku Yakuhin).

Compound	Biological Activity (Represented by Relative Activity to hPTH(1-34))
CC[C@H](C)[C@H](NC(=O)[C@H](CCC(=O)O)NC(=O)[C@H](CO)NC(=O)[C@@H](NC(=O)[C@@H](N)CO)C(C)C)C(=O)N[C@@H](CCC(N)=O)C(=O)N[C@@H](CC(C)C)C(=O)N[C@@H](CCSC)C(=O)N[C@@H](Cc1c[nH]cn1)C(=O)N[C@@H](CC(N)=O)C(=O)N[C@@H](CC(C)C)C(=O)NCC(=O)N[C@@H](CCCCN)C(=O)N[C@@H](Cc1c[nH]cn1)C(=O)N[C@@H](CC(C)C)C(=O)N[C@@H](CC(N)=O)C(=O)N[C@@H](CO)C(=O)N[C@@H](CCSC)C(=O)N[C@@H](CCC(=O)O)C(=O)N[C@@H](CCCNC(=N)N)C(=O)N[C@H](C(=O)N[C@@H](CCC(=O)O)C(=O)N[C@@H](Cc1c[nH]c2ccccc12)C(=O)N[C@@H](CC(C)C)C(=O)N[C@@H](Cc1c[nH]cn1)C(=O)N[C@@H](CCCCN)C(=O)N[C@@H](CCCCN)C(=O)N[C@@H](CC(C)C)C(=O)N[C@@H](CCC(N)=O)C(=O)N[C@@H](CC(=O)O)C(=O)N[C@H](C(=O)N[C@@H](Cc1c[nH]cn1)C(=O)N[C@@H](CC(N)=O)C(=O)N[C@@H](Cc1ccccc1)C(=O)O)C(C)C)C(C)C [[His^25] hPTH (1-34), (His^25)hPTH(1-34)]	1.0
CC[C@H](C)[C@H](NC(=O)[C@H](CCC(=O)O)NC(=O)[C@H](CO)NC(=O)[C@@H](NC(=O)[C@@H](N)CO)C(C)C)C(=O)N[C@@H](CCC(N)=O)C(=O)N[C@@H](CC(C)C)C(=O)N[C@@H](CCSC)C(=O)N[C@@H](Cc1c[nH]cn1)C(=O)N[C@@H](CC(N)=O)C(=O)N[C@@H](Cc1ccccc1)C(=O)NCC(=O)N[C@@H](CCCCN)C(=O)N[C@@H](Cc1c[nH]cn1)C(=O)N[C@@H](CC(C)C)C(=O)N[C@@H](CC(N)=O)C(=O)N[C@@H](CO)C(=O)N[C@@H](CCSC)C(=O)N[C@@H](CCC(=O)O)C(=O)N[C@@H](CCCNC(=N)N)C(=O)N[C@H](C(=O)N[C@@H](CCC(=O)O)C(=O)N[C@@H](Cc1c[nH]c2ccccc12)C(=O)N[C@@H](CC(C)C)C(=O)N[C@@H](CCCNC(=N)N)C(=O)N[C@@H](CCCCN)C(=O)N[C@@H](CCCCN)C(=O)N[C@@H](CC(C)C)C(=O)N[C@@H](CCC(N)=O)C(=O)N[C@@H](CC(=O)O)C(=O)N[C@H](C(=O)N[C@@H](Cc1c[nH]cn1)C(=O)N[C@@H](CC(N)=O)C(=O)N[C@@H](Cc1ccccc1)C(N)=O)C(C)C)C(C)C [[Phe^11] hPTH (1-34)NH2, (Phe^11)hPTH(1-34)NH2]	1.3
CC[C@H](C)[C@H](NC(=O)[C@H](CCC(=O)O)NC(=O)[C@H](CO)NC(=O)[C@@H](NC(=O)[C@@H](N)CO)C(C)C)C(=O)N[C@@H](CCC(N)=O)C(=O)N[C@@H](CC(C)C)C(=O)N[C@@H](CCSC)C(=O)N[C@@H](Cc1c[nH]cn1)C(=O)N[C@@H](CC(N)=O)C(=O)N[C@@H](CC(C)C)C(=O)NCC(=O)N[C@@H](CCCCN)C(=O)N[C@@H](Cc1c[nH]cn1)C(=O)N[C@@H](CC(C)C)C(=O)N[C@@H](CC(N)=O)C(=O)N[C@@H](CO)C(=O)N[C@@H](CCSC)C(=O)N[C@@H](CCC(=O)O)C(=O)N[C@@H](CCCNC(=N)N)C(=O)N[C@H](C(=O)N[C@@H](CCC(=O)O)C(=O)N[C@@H](Cc1c[nH]c2ccccc12)C(=O)N[C@@H](CC(C)C)C(=O)N[C@@H](CCCNC(=N)N)C(=O)N[C@@H](Cc1c[nH]cn1)C(=O)N[C@@H](CCCCN)C(=O)N[C@@H](CC(C)C)C(=O)N[C@@H](CCC(N)=O)C(=O)N[C@@H](CC(=O)O)C(=O)N[C@H](C(=O)N[C@@H](Cc1c[nH]cn1)C(=O)N[C@@H](CC(N)=O)C(=O)N[C@@H](Cc1ccccc1)C(N)=O)C(C)C)C(C)C [[His^26] hPTH (1-34)NH2, (His^26)hPTH(1-34(NH2]	0.9
CC[C@H](C)[C@H](NC(=O)[C@H](CCC(=O)O)NC(=O)[C@H](CO)NC(=O)[C@@H](NC(=O)[C@@H](N)CO)C(C)C)C(=O)N[C@@H](CCC(N)=O)C(=O)N[C@@H](CC(C)C)C(=O)N[C@@H](CCSC)C(=O)N[C@@H](Cc1c[nH]cn1)C(=O)N[C@@H](CC(N)=O)C(=O)N[C@@H](CC(C)C)C(=O)N[C@H](Cc1ccc2ccccc2c1)C(=O)N[C@@H](CCCCN)C(=O)N[C@@H](Cc1c[nH]cn1)C(=O)N[C@@H](CC(C)C)C(=O)N[C@@H](CC(N)=O)C(=O)N[C@@H](CO)C(=O)N[C@@H](CCSC)C(=O)N[C@@H](CCC(=O)O)C(=O)N[C@@H](CCCNC(=N)N)C(=O)N[C@H](C(=O)N[C@@H](CCC(=O)O)C(=O)N[C@@H](Cc1c[nH]c2ccccc12)C(=O)N[C@@H](CC(C)C)C(=O)N[C@@H](CCCNC(=N)N)C(=O)N[C@@H](CCCCN)C(=O)N[C@@H](CCCCN)C(=O)N[C@@H](CC(C)C)C(=O)N[C@@H](CCC(N)=O)C(=O)N[C@@H](CC(=O)O)C(=O)N[C@H](C(=O)N[C@@H](Cc1c[nH]cn1)C(=O)N[C@@H](CC(N)=O)C(=O)N[C@@H](Cc1ccccc1)C(N)=O)C(C)C)C(C)C [(3-(2-naphthyl)-D-Ala^12)hPTH(1-34)NH2]	0.9
CC[C@H](C)[C@H](NC(=O)[C@H](CCC(=O)O)NC(=O)[C@H](CO)NC(=O)[C@@H](NC(=O)[C@@H](N)CO)C(C)C)C(=O)N[C@@H](CCC(N)=O)C(=O)N[C@@H](CC(C)C)C(=O)N[C@@H](CCSC)C(=O)N[C@@H](Cc1c[nH]cn1)C(=O)N[C@@H](CC(N)=O)C(=O)N[C@@H](CC(C)C)C(=O)N[C@H](CC(C)C)C(=O)N[C@@H](CCCCN)C(=O)N[C@@H](Cc1c[nH]cn1)C(=O)N[C@@H](CC(C)C)C(=O)N[C@@H](CC(N)=O)C(=O)N[C@@H](CO)C(=O)N[C@@H](CCSC)C(=O)N[C@@H](CCC(=O)O)C(=O)N[C@@H](CCCNC(=N)N)C(=O)N[C@H](C(=O)N[C@@H](CCC(=O)O)C(=O)N[C@@H](Cc1c[nH]c2ccccc12)C(=O)N[C@@H](CC(C)C)C(=O)N[C@@H](CCCNC(=N)N)C(=O)N[C@@H](CCCCN)C(=O)N[C@@H](CCCCN)C(=O)N[C@@H](CC(C)C)C(=O)N[C@@H](CCC(N)=O)C(=O)N[C@@H](CC(=O)O)C(=O)N[C@H](C(=O)N[C@@H](Cc1c[nH]cn1)C(=O)N[C@@H](CC(N)=O)C(=O)N[C@@H](Cc1ccccc1)C(N)=O)C(C)C)C(C)C [[D-Leu^12] hPTH (1-34)NH2, (D-Leu^12)hPTH(1-34)NH2]	0.5
CC[C@H](C)[C@H](NC(=O)[C@H](CCC(=O)O)NC(=O)[C@H](CO)NC(=O)[C@@H](NC(=O)[C@@H](N)CO)C(C)C)C(=O)N[C@@H](CCC(N)=O)C(=O)N[C@@H](CC(C)C)C(=O)N[C@@H](CCSC)C(=O)N[C@@H](Cc1c[nH]cn1)C(=O)N[C@@H](CC(N)=O)C(=O)N[C@@H](CO)C(=O)NCC(=O)N[C@@H](CCCCN)C(=O)N[C@@H](Cc1c[nH]cn1)C(=O)N[C@@H](CC(C)C)C(=O)N[C@@H](CC(N)=O)C(=O)N[C@@H](CO)C(=O)N[C@@H](CCSC)C(=O)N[C@@H](CCC(=O)O)C(=O)N[C@@H](CCCNC(=N)N)C(=O)N[C@H](C(=O)N[C@@H](CCC(=O)O)C(=O)N[C@@H](Cc1c[nH]c2ccccc12)C(=O)N[C@@H](CC(C)C)C(=O)N[C@@H](CCCNC(=N)N)C(=O)N[C@@H](CCCCN)C(=O)N[C@@H](CCCCN)C(=O)N[C@@H](CC(C)C)C(=O)N[C@@H](CCC(N)=O)C(=O)N[C@@H](CC(=O)O)C(=O)N[C@H](C(=O)N[C@@H](Cc1c[nH]cn1)C(=O)N[C@@H](CC(N)=O)C(=O)N[C@@H](Cc1ccccc1)C(N)=O)C(C)C)C(C)C [[Ser^11] hPTH (1-34)NH2, (Ser^11)hPTH(1-34)NH2]	0.8
CC[C@H](C)[C@H](NC(=O)[C@H](CCC(=O)O)NC(=O)[C@H](CO)NC(=O)[C@@H](NC(=O)[C@@H](N)CO)C(C)C)C(=O)N[C@@H](CCC(N)=O)C(=O)N[C@@H](CC(C)C)C(=O)N[C@@H](CCSC)C(=O)N[C@@H](Cc1c[nH]cn1)C(=O)N[C@@H](CC(N)=O)C(=O)N[C@@H](Cc1ccc2ccccc2c1)C(=O)NCC(=O)N[C@@H](CCCCN)C(=O)N[C@@H](Cc1c[nH]cn1)C(=O)N[C@@H](CC(C)C)C(=O)N[C@@H](CC(N)=O)C(=O)N[C@@H](CO)C(=O)N[C@@H](CCSC)C(=O)N[C@@H](CCC(=O)O)C(=O)N[C@@H](CCCNC(=N)N)C(=O)N[C@H](C(=O)N[C@@H](CCC(=O)O)C(=O)N[C@@H](Cc1c[nH]c2ccccc12)C(=O)N[C@@H](CC(C)C)C(=O)N[C@@H](CCCNC(=N)N)C(=O)N[C@@H](CCCCN)C(=O)N[C@@H](CCCCN)C(=O)N[C@@H](CC(C)C)C(=O)N[C@@H](CCC(N)=O)C(=O)N[C@@H](CC(=O)O)C(=O)N[C@H](C(=O)N[C@@H](Cc1c[nH]cn1)C(=O)N[C@@H](CC(N)=O)C(=O)N[C@@H](Cc1ccccc1)C(N)=O)C(C)C)C(C)C [[3-(2-naphthyl)-Ala^11] hPTH (1-34)NH2]	1.7
